Experimental data published in patent US8577617B2, “Metabolic phenotyping” (priority 2002, dated 2013).
Several values for one entry are separate records, joined by “and”; a condition that tells them apart may be missing. Equal values may be shown once. Entries after “also recorded” stand apart in the source; their conditions may differ. One block for each compound: values may come before it.

Legend:
[1] = tested on: male Sprague-Dawley rats; assay: Clinical chemistry analysis of plasma after dosing galactosamine HCl; format: in vivo, rat; conditions: plasma 24 hours post-dosing
Method: (§1) At the time of dosing (at the start of day 1) the growing rats were each approximately 260 g in mass. Galactosamine (abbreviated GaIN) HCl (from Sigma, France) was dissolved in physiological saline and dosed by intraperitoneal injection at either 200 mg/kg or at 800 mg/kg; ten animals (nos. 101-110) received the low dose and ten animals (nos. 201-210) received the high dose. Ten control animals (nos. 1-10) received an oral dose of corn oil. Five of each group of ten rats were euthanased by means of CO2 on day 2 with the remainder being euthanased by the same technique on day 8. The early-euthanased rats were numbers 6-10, 106-110 and 206-210. The late-euthanased rats were numbers 1-5, 101-105 and 201-205. Blood was sampled from the orbital sinus, under isoflurane anaesthesia. Blood was sampled from all animals on day −3 and just prior to euthanasia on either day 2 or day 8. Following euthanasia each rat was sampled for histopathological examination with the sampling including taking ten liver samples from each rat (two from each liver lobe). The blood samples were collected into vials containing lithium heparin as anticoagulant and immediately centrifuged at approx. minus four degrees C. to separate plasma. A portion of each plasma sample was analysed at thirty degrees C. on an AU600 multiparametric clinical analyser (Olympus) for a range of clinical chemistry parameters including alanine aminotransferase (ALT) and aspartate aminotransferase (AST) amongst many others.

[2] = tested on: male Sprague-Dawley rats; assay: Histopathology of liver after dosing galactosamine HCl; format: in vivo, rat; conditions: for histopathological changes: 200 mg/kg i.p.
Source text: as §1, with “Thirty young adult age-matched male Sprague-Dawley rats were obtained from Charles River, France. After observation to ensure that they each appeared healthy they were placed in individual metabolism cages with free access to water and a standard commercial laboratory diet (diet AO4C from Usine d'Alimentation Rationnelle, Villemoisson-sur-Orge, France). The laboratory temperature was maintained at 20.+−−.2 degrees C. and the relative humidity at 60.±.20%. The laboratory air was filtered and changed 14 times per hour. A fixed ‘12 hours light-12 hours dark’ cycle was imposed. The study commenced after a short period of cage ‘acclimatisation’. At” for “At”

[3] = tested on: male Sprague-Dawley rats; assay: 1H NMR of post-dose urine after dosing galactosamine HCl (galactosamine excretion, endogenous metabolite changes, responder classification); format: in vivo, rat
Method: At the time of dosing (at the start of day 1) the growing rats were each approximately 260 g in mass. Galactosamine (abbreviated GaIN) HCl (from Sigma, France) was dissolved in physiological saline and dosed by intraperitoneal injection at either 200 mg/kg or at 800 mg/kg; ten animals (nos. 101-110) received the low dose and ten animals (nos. 201-210) received the high dose. Ten control animals (nos. 1-10) received an oral dose of corn oil.
Pre- and post-dose urine samples were collected for 7 hours daily into ice-cooled vessels containing sodium azide (0.100 ml of a 10% (w/v) solution of sodium azide in water) as an antibacterial preservative. There was an additional overnight urine collection on the day of dosing (from 7-24 hours post-dose). The urine collection apparatus was cleaned prior to each collection to minimise bacterial, food and faecal contamination. The urine samples were deep-frozen pending NMR analysis.
Urine samples were prepared for NMR analysis by mixing 400 Eli of urine with 200 μl of phosphate buffer (an 81:19 (v/v) mixture of 0.2 M Na2HPO4 and 0.2 M NaH2PO4; pH 7.4); if insufficient urine was available the shortfall was made up with purified water with a minimum of 200 μl of urine being used. The urine-buffer mixture was left to stand for 10 minutes at room temperature to enable buffering to take place and then centrifuged at 13,000 rpm for a further 10 minutes to remove suspended particulates. 500 μl of ‘clear’ buffered urine was transferred to an NMR tube and 50 μl of a TSP/D2O solution added. TSP (sodium 3-trimethylsilyl-[2,2,3,3-^2H4]-1-propionate) is a chemical shift reference compound (δ 0) used in the NMR experiment and the D2O provided a field/frequency lock for the NMR spectrometer. The concentration of the TSP/D2O solution was such as to give a final TSP concentration of 0.1 mM in the NMR tube. The NMR analyses were carried out at thirty degrees C. on a Bruker AMX 600 MHz NMR spectrometer with the NOESYPRESAT pulse sequence (Claridge, 1999) used to reduce the size of the water signal. The principal acquisition parameters were:
After acquisition, the NMR spectra were Fourier-transformed into 32768 data points following application of 0.3 Hz line-broadening by means of an exponential multiplication applied to the free induction decay signal. The spectra were phased to give an even baseline around the NMR signals and the chemical shift scale was set by assigning the value of δ 0 to the TSP peak. Prior to data-reduction, the baseline of each day −1 spectrum was moved to zero intensity using a straight-line baseline correction algorithm. All these spectral processing operations were carried out on a Silicon Graphics computer using the ‘xwinnmr’ software (Bruker GmBH).
On the basis of this visual examination, animals could be readily categorised as either (i) ‘responders’ or (ii) as ‘weak or non-responders’.

[4] = tested on: male Sprague-Dawley rats; format: in vivo; conditions: 200 mg/kg i.p., individual animals 101-110
Method: Dosing was on the day designated as ‘day 1’ when the growing rats were each approximately 250 g in mass. Isoniazid (from Sigma, France) was dissolved in physiological saline and dosed by intraperitoneal injection at either 200 mg/kg or at 400 mg/kg; ten animals (nos. 101-110) received the low dose and ten animals (nos. 201-210) received the high dose. Ten control animals (nos. 1-10) received an intraperitoneal injection of saline.
It was intended that post-dose blood samples would be taken immediately before euthanasia with euthanasia being immediately followed by sampling for histopathology. As in Example 1, the intention was that five of each group of ten rats would be euthanased by means of CO2 at one day after dosing thereby providing early blood and histopathology samples; the remainder were to be euthanased by the same technique at seven days after dosing thereby providing late blood and histopathology samples. It was planned that the early-euthanased rats would be numbers 6-10, 106-110 and 206-210 whilst the late-euthanased rats would be numbers 1-5, 101-105 and 201-205. […] The urine samples were deep-frozen pending NMR analysis. […]

[5] = 200 mg/kg i.p., individual animals 106-110, hydrochloride
[6] = 800 mg/kg i.p., individual animals 206-210, hydrochloride
[7] = 200 mg/kg i.p., animals 101-105
[8] = 800 mg/kg i.p., animals 201-205, hydrochloride
[9] = 800 mg/kg i.p., day 2 and day 3, animals 201 and 202
[10] = 800 mg/kg i.p., day 3, animals 201 and 202
[11] = 800 mg/kg i.p., day 3, animals 201 and 202, hydrochloride

GGT (γ-glutamyl transferase) ([1]; 200 mg/kg i.p., individual animals 106-110): 0 IU/L
A/G (albumin/globulin ratio) [1, 5]: 1.3 and 1.4 (3×) and 1.5
ALB (albumin) [1, 5]: 33 g/L (3×) and 37 g/L and 34 g/L
CREA (creatinine) [1, 5]: 0.5 mg/dL (4×) and 0.4 mg/dL
A/G (albumin/globulin ratio) [1, 6]: 1.7 and 2.1 and 1.5 and 2.4 and 1.8
CREA (creatinine) [1, 6]: 0.4 mg/dL (4×) and 0.5 mg/dL
histopathological changes ([2]; day 2): No differences
histopathological changes ([2]; day 8): No differences
urinary creatine [3, 7]: Creatine: no increase
urinary taurine [3, 7]: instances of raised
urinary histidine ([3]; 800 mg/kg i.p., day 3, animal 201, hydrochloride): increased excretion
Structure (SMILES): Cl.N[C@H]1C(O)O[C@H](CO)[C@H](O)[C@@H]1O (stereo partly shown) [galactosamine HCl, galactosamine hydrochloride]
5′-NT (5-nucleotidase) [1, 5]: 23 IU/L and 21 IU/L (2×) and 19 IU/L and 27 IU/L
ALAT (alanine aminotransferase) [1, 5]: 43 IU/L and 46 IU/L and 49 IU/L and 38 IU/L and 47 IU/L
AP (alkaline phosphatase) [1, 5]: 606 IU/L and 495 IU/L and 566 IU/L and 697 IU/L and 637 IU/L
ASAT (aspartate aminotransferase) [1, 5]: 107 IU/L and 84 IU/L and 73 IU/L and 67 IU/L and 75 IU/L
BILI (bilirubin) [1, 5]: 0.09 mg/dL and 0.05 mg/dL and 0.11 mg/dL and 0.1 mg/dL and 0.12 mg/dL
CHOL (total cholesterol) [1, 5]: 73 mg/dL and 60 mg/dL and 91 mg/dL and 72 mg/dL and 81 mg/dL
GLUC (glucose) [1, 5]: 173 mg/dL and 184 mg/dL and 167 mg/dL and 138 mg/dL and 182 mg/dL
PROT (total protein) [1, 5]: 59 g/L and 56 g/L and 61 g/L and 58 g/L and 57 g/L
TBA (total bile acids) [1, 5]: 48.0 μmol/L and 22.0 μmol/L and 29.0 μmol/L (2×) and 23.0 μmol/L
TRIG (triglycerides) [1, 5]: 94 mg/dL and 158 mg/dL and 140 mg/dL and 109 mg/dL and 127 mg/dL
UREA (urea) [1, 5]: 29 mg/dL and 40 mg/dL and 33 mg/dL and 28 mg/dL (2×)
5′-NT (5-nucleotidase) [1, 6]: 156 IU/L and 23 IU/L and 17 IU/L and 203 IU/L and 35 IU/L
ALAT (alanine aminotransferase) [1, 6]: 2350 IU/L and 178 IU/L and 45 IU/L and 4300 IU/L and 479 IU/L
ALB (albumin) [1, 6]: 32 g/L and 33 g/L (2×) and 34 g/L and 31 g/L
AP (alkaline phosphatase) [1, 6]: 787 IU/L and 983 IU/L and 666 IU/L and 999 IU/L and 852 IU/L
ASAT (aspartate aminotransferase) [1, 6]: 4320 IU/L and 264 IU/L and 79 IU/L and 10600 IU/L and 832 IU/L
BILI (bilirubin) [1, 6]: 1.26 mg/dL and 0.06 mg/dL and 0.11 mg/dL and 1.37 mg/dL and 0.12 mg/dL
CHOL (total cholesterol) [1, 6]: 60 mg/dL and 15 mg/dL and 61 mg/dL and 42 mg/dL and 46 mg/dL
GGT (γ-glutamyl transferase) [1, 6]: 2 IU/L and 0 IU/L (2×) and 5 IU/L and 1 IU/L
GLUC (glucose) [1, 6]: 100 mg/dL and 162 mg/dL and 168 mg/dL and 80 mg/dL and 130 mg/dL
PROT (total protein) [1, 6]: 51 g/L and 49 g/L and 56 g/L and 47 g/L and 48 g/L
TBA (total bile acids) [1, 6]: 493 µmol/L and 43.0 µmol/L and 20.0 µmol/L and 1300 µmol/L and 65.0 µmol/L
TRIG (triglycerides) [1, 6]: 38 mg/dL (2×) and 89 mg/dL and 148 mg/dL and 95 mg/dL
UREA (urea) [1, 6]: 45 mg/dL and 24 mg/dL and 29 mg/dL and 40 mg/dL and 25 mg/dL
animals with multifocal randomly scattered foci of hepatocellular necrosis ([2]; 800 mg/kg i.p., day 2): hepatocellular necrosis were present in 4/5
severity of changes (hepatocellular necrosis) ([2]; 800 mg/kg i.p., day 2, individual animals 206-210, hydrochloride): 207 - mild and 206, 210 - marked and 209 - severe and 208 - none
animals with minimal bile duct hyperplasia ([2]; 800 mg/kg i.p., day 8): Minimal bile duct hyperplasia was found in 2/5
urinary 2-oxoglutarate [3, 8]: 2-Oxoglutarate: Animals 203-205 showed no obvious change and reduced levels on days 2 and 3 but very high levels on day 7.
urinary taurine [3, 8]: increases; also recorded: Taurine: Animals 203-205 showed no clear change whilst; also recorded: animals 201 & 202 showed highly elevated levels
urinary guanidinoacetic acid (GAA) ([3]; 800 mg/kg i.p., animals 201 and 202, hydrochloride): increases; also recorded: very much increased levels on day 3 and perhaps somewhat
urinary betaine ([3]; 800 mg/kg i.p., day 2 and day 3, animals 201 & 202, hydrochloride): increases; also recorded: Betaine: appeared very clearly in the day 2 and day 3 samples
urinary glucose [3, 9]: Glucose: appeared to be elevated in the day 2 and day 3
urinary urocanic acid [3, 9]: Urocanic acid: appeared clearly in the day 2 and day 3
urinary glutamate and glutamine ([3]; 800 mg/kg i.p., day 3, animal 201): Glutamate and glutamine were elevated in the day 3 urine
urinary trimethylamine-N-oxide (TMAO) ([3]; 800 mg/kg i.p., day 3, animals 201 & 202, hydrochloride): decreases; also recorded: levels, TMAO had essentially disappeared from the day 3
urinary bile acids (seen as C18 methyl) [3, 10]: Bile acids: clearly increased (seen as C18 methyl) in the day
urinary threonine [3, 10]: Threonine: was very clearly elevated in the day 3 samples
urinary creatine [3, 11]: increases; also recorded: Creatine: Only animals 201 and 202 showed a clear increase
urinary hippurate [3, 11]: decreased excretion; also recorded: Hippurate: was depleted in the day 3 samples from animals
Total amount of galactosamine excreted in the urine from 0-24 hours post-dosing ([3]; 800 mg/kg i.p., individual animals 201-210, hydrochloride): 40.0 mg and 26.2 mg and 0.4 mg and 0.1 mg and 0.3 mg and 14.9 mg and 8.4 mg and 2.3 mg and 28.2 mg and 30.5 mg

Structure (SMILES): NNC(=O)c1ccncc1 [isoniazid]
Premature Death? [4]: No
